Molecular target: T1, human orexin type 2 receptor (Homo sapiens, UniProt O43614)
T1 construct: expressed in transfected cells
T1 sequence (O43614 1-444): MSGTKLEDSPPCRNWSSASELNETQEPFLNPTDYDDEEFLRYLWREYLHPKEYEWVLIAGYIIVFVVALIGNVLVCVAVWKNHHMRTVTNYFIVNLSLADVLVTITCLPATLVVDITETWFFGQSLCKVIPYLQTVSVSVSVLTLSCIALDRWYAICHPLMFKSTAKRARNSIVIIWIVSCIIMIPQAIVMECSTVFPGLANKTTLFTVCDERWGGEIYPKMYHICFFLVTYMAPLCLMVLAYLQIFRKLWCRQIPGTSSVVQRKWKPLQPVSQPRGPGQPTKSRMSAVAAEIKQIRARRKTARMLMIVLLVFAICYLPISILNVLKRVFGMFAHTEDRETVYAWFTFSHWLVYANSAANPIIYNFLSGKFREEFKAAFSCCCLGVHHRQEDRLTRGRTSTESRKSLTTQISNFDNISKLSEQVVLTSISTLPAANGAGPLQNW
Assay: Measurement of orexin type 2 receptor agonist activity (calcium fluorescence, Fluo-4 AM, FDSS)
Assay type: cell-based
Settings: test compound 3 μM; CHO cells expressing human OX2 receptor; DMSO = 0%, orexin A (human) = 100%
How it was run: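 CHO-K1 cells stably expressing human OX2R were loaded with Fluo-4 AM (30 min 37 °C, 30 min RT) in HEPES-buffered HBSS with 0.1% BSA and probenecid. Calcium fluorescence was followed on FDSS for 2 min after compound addition; activity normalised to DMSO (0%) and 10 nM orexin A (100%).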

Going from `CS(=O)(=O)N[C@H]1CCCN(C(=O)C2C(c3ccccc3-c3c(F)cccc3F)C2(F)F)C1` (stereo partly drawn) [Example 330, N-{(3S)-1-[(1R,3R)-3-(2′,6′-difluoro[1,1′-biphenyl]-2-yl)-2,2-difluorocyclopropane-1-carbonyl]piperidin-3-yl}methanesulfonamide, or N-{(3S)-1-[(1S,3S)-3-(2′,6′-difluoro[1,1′-biphenyl]-2-yl)-2,2-difluorocyclopropane-1-carbonyl]piperidin-3-yl}methanesulfonamide] to `COCC1(C(=O)N2CC[C@H](NS(C)(=O)=O)C2)CC1c1ccccc1-c1c(F)cccc1F` (stereo partly drawn) [Example 346, N-{(3S)-1-[(1R,2S)-2-(2′,6′-difluoro[1,1′-biphenyl]-2-yl)-1-(methoxymethyl)cyclopropane-1-carbonyl]pyrrolidin-3-yl}methanesulfonamide, or N-{(3S)-1-[(1S,2R)-2-(2′,6′-difluoro[1,1′-biphenyl]-2-yl)-1-(methoxymethyl)cyclopropane-1-carbonyl]pyrrolidin-3-yl}methanesulfonamide], the “OX2R agonist activity (3 μM, %)” value rises from 91% to 100%.

Going from `CS(=O)(=O)NC1CN(C(=O)[C@@H]2C[C@@]2(F)c2ccccc2-c2c(F)cccc2F)CC1(F)F` (stereo partly drawn) [Example 331, N-{(3R)-1-[(1S,2S)-2-(2′,6′-difluoro[1,1′-biphenyl]-2-yl)-2-fluorocyclopropane-1-carbonyl]-4,4-difluoropyrrolidin-3-yl}methanesulfonamide, or N-{(3S)-1-[(1S,2S)-2-(2′,6′-difluoro[1,1′-biphenyl]-2-yl)-2-fluorocyclopropane-1-carbonyl]-4,4-difluoropyrrolidin-3-yl}methanesulfonamide] to `CS(=O)(=O)N[C@@H]1CN(C(=O)[C@@H]2C[C@@]2(F)c2ccccc2-c2c(F)cccc2F)CCC1(F)F` [Example 333, N-{(3R)-1-[(1S,2S)-2-(2′,6′-difluoro[1,1′-biphenyl]-2-yl)-2-fluorocyclopropane-1-carbonyl]-4,4-difluoropiperidin-3-yl}methanesulfonamide], the “OX2R agonist activity (3 μM, %)” value rises from 96% to 99%.

Going from `CS(=O)(=O)N[C@H]1C[C@H](O)CN(C(=O)[C@@H]2C[C@@]2(F)c2ccccc2-c2c(F)cccc2F)C1` [Example 332, N-{(3S,5S)-1-[(1S,2S)-2-(2′,6′-difluoro[1,1′-biphenyl]-2-yl)-2-fluorocyclopropane-1-carbonyl]-5-hydroxypiperidin-3-yl}methanesulfonamide] to `CS(=O)(=O)N[C@H]1C[C@@H](O)CN(C(=O)[C@@H]2C[C@@]2(F)c2ccccc2-c2c(F)cccc2F)C1` [Example 341, N-{(3S,5R)-1-[(1S,2S)-2-(2′,6′-difluoro[1,1′-biphenyl]-2-yl)-2-fluorocyclopropane-1-carbonyl]-5-hydroxypiperidin-3-yl}methanesulfonamide], the “OX2R agonist activity (3 μM, %)” value rises from 95% to 101%.

Going from `O=C([C@@H]1C[C@H]1c1ccccc1-c1c(F)cccc1F)N1CC[C@H]1CNS(=O)(=O)N1CCC1` [Example 334, N-({(2S)-1-[(1R,2R)-2-(2′,6′-difluoro[1,1′-biphenyl]-2-yl)cyclopropane-1-carbonyl]azetidin-2-yl}methyl)azetidine-1-sulfonamide] to `CS(=O)(=O)NC[C@@H]1CCN1C(=O)[C@@H]1C[C@H]1c1ccccc1-c1c(F)cccc1F` [Example 355, N-({(2S)-1-[(1R,2R)-2-(2′,6′-difluoro[1,1′-biphenyl]-2-yl)cyclopropane-1-carbonyl]azetidin-2-yl}methyl)methanesufonamide], the “OX2R agonist activity (3 μM, %)” value falls from 96% to 94%.

Going from `CNS(=O)(=O)N[C@H]1CCN(C(=O)[C@@H]2C[C@H]2c2ccccc2-c2c(F)cccc2F)C1` [Example 335, N-{(3S)-1-[(1R,2R)-2-(2′,6′-difluoro[1,1′-biphenyl]-2-yl)cyclopropane-1-carbonyl]pyrrolidin-3-yl}-N′-methylsulfuric diamide] to `CNS(=O)(=O)NC[C@@H]1CN(C(=O)[C@@H]2C[C@H]2c2ccccc2-c2c(F)cccc2F)CCO1` [Example 337, N-({(2S)-4-[(1R,2R)-2-(2′,6′-difluoro[1,1′-biphenyl]-2-yl)cyclopropane-1-carbonyl]morpholin-2-yl}methyl)-N′-methylsulfuric diamide], the “OX2R agonist activity (3 μM, %)” value rises from 96% to 100%.

Compared with `O=C([C@@H]1C[C@H]1c1ccccc1-c1c(F)cccc1F)N1CCO[C@H](CNS(=O)(=O)N2CCC2)C1` [Example 338, N-({(2S)-4-[(1R,2R)-2-(2′,6′-difluoro[1,1′-biphenyl]-2-yl)cyclopropane-1-carbonyl]morpholin-2-yl}methyl)azetidine-1-sulfonamide], `CS(=O)(=O)NC1(CF)CCN(C(=O)[C@@H]2C[C@H]2c2ccccc2-c2c(F)cccc2F)C1` (stereo partly drawn) [Example 342, N-[(3R)-1-[(1R,2R)-2-(2′,6′-difluoro[1,1′-biphenyl]-2-yl)cyclopropane-1-carbonyl]-3-(fluoromethyl)pyrrolidin-3-yl]methanesulfonamide, or N-[(3S)-1-[(1R,2R)-2-(2′,6′-difluoro[1,1′-biphenyl]-2-yl)cyclopropane-1-carbonyl]-3-(fluoromethyl)pyrrolidin-3-yl]methanesulfonamide] is higher in “OX2R agonist activity (3 μM, %)” value: 98% for the first, 101% for the second.

First: CNS(=O)(=O)NC[C@@H]1CCN1C(=O)[C@@H]1C[C@H]1c1ccccc1-c1c(F)cccc1F [Example 339, N-({(2S)-1-[(1R,2R)-2-(2′,6′-difluoro[1,1′-biphenyl]-2-yl)cyclopropane-1-carbonyl]azetidin-2-yl}methyl)-N′-methylsulfuric diamide]
Second: CS(=O)(=O)NC[C@@H]1CCN1C(=O)[C@@H]1C[C@@]1(F)c1ccccc1-c1c(F)cccc1F [Example 352, N-({(2S)-1-[(1S,2S)-2-(2′,6′-difluoro[1,1′-biphenyl]-2-yl)-2-fluorocyclopropane-1-carbonyl]azetidin-2-yl}methyl)methanesulfonamide]
The “OX2R agonist activity (3 μM, %)” value of the first is higher: 103% for the first, 96% for the second.

Compared with `CS(=O)(=O)NC1CCC2CN(C(=O)[C@@H]3C[C@H]3c3ccccc3-c3c(F)cccc3F)CC21F` (stereo partly drawn) [Example 340, N-{(3aR,4R,6aS)-2-[(1R,2R)-2-(2′,6′-difluoro[1,1′-biphenyl]-2-yl)cyclopropane-1-carbonyl]-3a-fluorooctahydrocyclopenta[c]pyrrol-4-yl}methanesulfonamide, or N-{(3aS,4S,6aR)-2-[(1R,2R)-2-(2′,6′-difluoro[1,1′-biphenyl]-2-yl)cyclopropane-1-carbonyl]-3a-fluorooctahydrocyclopenta[c]pyrrol-4-yl}methanesulfonamide], `CO[C@@H]1CCN(C(=O)[C@@H]2C[C@H]2c2ccccc2-c2c(F)cccc2F)C[C@H]1NS(C)(=O)=O` [Example 350, N-{(3R,4R)-1-[(1R,2R)-2-(2′,6′-difluoro[1,1′-biphenyl]-2-yl)cyclopropane-1-carbonyl]-4-methoxypiperidin-3-yl}methanesulfonamide] is higher in “OX2R agonist activity (3 μM, %)” value: 94% for the first, 102% for the second.

Compared with `CC1(NS(C)(=O)=O)CCN(C(=O)[C@@H]2C[C@@]2(F)c2ccccc2-c2c(F)cccc2F)C1` (stereo partly drawn) [Example 344, N-{(3R)-1-[(1S,2S)-2-(2′,6′-difluoro[1,1′-biphenyl]-2-yl)-2-fluorocyclopropane-1-carbonyl]-3-methylpyrrolidin-3-yl}methanesulfonamide, or N-{(3S)-1-[(1S,2S)-2-(2′,6′-difluoro[1,1′-biphenyl]-2-yl)-2-fluorocyclopropane-1-carbonyl]-3-methylpyrrolidin-3-yl}methanesulfonamide], `CS(=O)(=O)N[C@@H]1CN(C(=O)[C@@H]2C[C@@]2(F)c2ccccc2-c2c(F)cccc2F)CC[C@H]1O` [Example 348, N-{(3R,4R)-1-[(1S,2S)-2-(2′,6′-difluoro[1,1′-biphenyl]-2-yl)-2-fluorocyclopropane-1-carbonyl]-4-hydroxypiperidin-3-yl}methanesulfonamide] is higher in “OX2R agonist activity (3 μM, %)” value: 95% for the first, 97% for the second.

First: COCC1(C(=O)N2CC[C@H]2CNS(C)(=O)=O)CC1c1ccccc1-c1c(F)cccc1F (stereo partly drawn) [Example 347, N-({(2S)-1-[(1R,2S)-2-(2′,6′-difluoro[1,1′-biphenyl]-2-yl)-1-(methoxymethyl)cyclopropane-1-carbonyl]azetidin-2-yl}methyl)methanesulfonamide, or N-({(2S)-1-[(1S,2R)-2-(2′,6′-difluoro[1,1′-biphenyl]-2-yl)-1-(methoxymethyl)cyclopropane-1-carbonyl]azetidin-2-yl}methyl)methanesulfonamide]
Second: CO[C@H]1C[C@H](NS(C)(=O)=O)CN(C(=O)[C@@H]2C[C@H]2c2ccccc2-c2c(F)cccc2F)C1 [Example 349, N-{(3S,5S)-1-[(1R,2R)-2-(2′,6′-difluoro[1,1′-biphenyl]-2-yl)cyclopropane-1-carbonyl]-5-methoxypiperidin-3-yl}methanesulfonamide]
The “OX2R agonist activity (3 μM, %)” value of the first is lower: 95% for the first, 97% for the second.
